Reference: patent US20250145665A1, “MACROCYCLIC PEPTIDES USEFUL AS MODULATORS OF TNF ALPHA” (Bristol-Myers Squibb Company, priority 2023, published 2025)
Starred links: 1 amine or outer side, 2 acyl side, 3 side chain; linkers in the order of their positions; H or OH if unused. Positions of bridges follow the written chain, without caps; N, C: chain ends. Non-standard residues stand in square brackets, D forms with d. Residues, ends and D or L forms follow the SMILES beside them. *: point of attachment. X84 = O=C(Oc1cccc(-c2ccc(C[C@H](N[*:1])C(=O)[*:2])cc2)c1)c1csc(-c2ccncc2)n1; X46 = O=C(Cc1cccc(C(=O)O)c1)Nc1ccc(-c2ccc(C[C@H](N[*:1])C(=O)[*:2])cc2)cc1; X5 = Cn1nc(C(=O)Nc2ccc(-c3ccc(C[C@H](N[*:1])C(=O)[*:2])cc3)cc2)c2ccccc21; Bip(4'-NH) = O=C([C@H](Cc1ccc(-c2ccc(N[*:3])cc2)cc1)N[*:1])[*:2]; Bip(4'-CONHMe) = CNC(=O)c1ccc(-c2ccc(C[C@H](N)C(=O)O)cc2)cc1; Indazole3carbonyl(1-CH2COOH) = O=C(O)Cn1nc(C(=O)*)c2ccccc21; Bip(4'-COOH) = N[C@@H](Cc1ccc(-c2ccc(C(=O)O)cc2)cc1)C(=O)O; X49 = O=C([C@H](Cc1ccc(-c2cccc(N[*:3])c2)cc1)N[*:1])[*:2]; Ala(morpholin-4-yl) = N[C@@H](CN1CCOCC1)C(=O)O; Phe(3-CONH2) = NC(=O)c1cccc(C[C@H](N)C(=O)O)c1; Bip = N[C@@H](Cc1ccc(-c2ccccc2)cc1)C(=O)O; X24 = O=C(O)COc1cc(-c2ccccc2)ccc1C(=O)*; X31 = Cn1c(C(=O)*)cc2cccc(Cl)c21; 2Pal = N[C@@H](Cc1ccccn1)C(=O)O; Tic = O=C(O)[C@@H]1Cc2ccccc2CN1; X32 = O=C(c1sc2cccc(Cl)c2c1Cl)*; Cha = N[C@@H](CC1CCCCC1)C(=O)O; Tle = CC(C)(C)[C@H](N)C(=O)O; X50 = O=C(O)COc1ccccc1C(=O)*; Aze = O=C(O)[C@@H]1CCN1; Sar = CNCC(=O)O

molecular target: TNFα (Homo sapiens, UniProt P01375); assay: TNF-Induced HEK-Blue Assay; type: cell-based; details: not given
Sequence (P01375 77-233 limits assumed): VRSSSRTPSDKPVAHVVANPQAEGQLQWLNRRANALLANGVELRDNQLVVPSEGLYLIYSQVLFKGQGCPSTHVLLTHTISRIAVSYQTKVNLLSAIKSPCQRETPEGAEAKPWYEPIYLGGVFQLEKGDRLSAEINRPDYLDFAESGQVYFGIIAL

Compound	IC50 [nM]
CC(C)C[C@@H]1NC(=O)[C@H](CCCNC(=N)N)NC(=O)[C@H](C(C)C)NC(=O)[C@@H]2CCCN2C(=O)[C@H](C(C)C)NC(=O)[C@@H](CCCNC(=N)N)NC(=O)[C@H](CC(=O)O)NC(=O)[C@@H]2CCCN2C(=O)CN(C)C(=O)[C@H](Cc2ccc(-c3ccc(NC(=O)c4nn(CC(=O)O)c5ccccc45)cc3)cc2)NC(=O)[C@H](Cc2ccc(-c3ccccc3)cc2)NC(=O)[C@H](CN2CCOCC2)NC(=O)CSC[C@@H](C(=O)NCC(N)=O)NC1=O [Example 333] ({CH2CO}-[Ala(morpholin-4-yl)][Bip][Bip(4'-NH)](Indazole3carbonyl(1-CH2COOH))[Sar]PD[dR]VPVRLCG-NH2; thioether N-13)	< 50

same assay, conditions: HEK-Blue-CD40L cells, NF-kB-driven secreted alkaline phosphatase reporter; TNFα 0.5 ng/ml; 18 h; read-out: TNF induced HEK-Blue assay IC50 value

IC50 [nM]	Compound
200 to 2000	CC[C@H](C)[C@@H]1NC(=O)[C@@H](CCCNC(=N)N)NC(=O)[C@H](CC(=O)O)NC(=O)[C@H](Cc2cnc[nH]2)NC(=O)CN(C)C(=O)[C@H](Cc2ccc(-c3ccc(NC(=O)c4sc5cccc(Cl)c5c4Cl)cc3)cc2)NC(=O)[C@H](Cc2ccc(-c3ccccc3)cc2)NC(=O)[C@H](CC2CCCCC2)NC(=O)CSC[C@@H](C(=O)NCC(N)=O)NC(=O)[C@H](CC(C)C)NC(=O)[C@H](Cc2cnc[nH]2)NC(=O)[C@H](C(C)C)NC(=O)[C@@H]2CCCN2C1=O [Example 325] ({CH2CO}-[Cha][Bip][Bip(4'-NH)](X32)[Sar]HD[dR]IPVHLCG-NH2; thioether N-13)
50 to 200	CC[C@H](C)[C@@H]1NC(=O)[C@@H](CCCNC(=N)N)NC(=O)[C@H](CC(=O)O)NC(=O)[C@H](Cc2cnc[nH]2)NC(=O)CN(C)C(=O)[C@H](Cc2ccc(-c3ccc(NC(=O)c4cc5cccc(Cl)c5n4C)cc3)cc2)NC(=O)[C@H](Cc2ccc(-c3ccccc3)cc2)NC(=O)[C@H](CC2CCCCC2)NC(=O)CSC[C@@H](C(=O)NCC(N)=O)NC(=O)[C@H](CC(C)C)NC(=O)[C@H](Cc2cnc[nH]2)NC(=O)[C@H](C(C)C)NC(=O)[C@@H]2CCCN2C1=O [Example 326] ({CH2CO}-[Cha][Bip][Bip(4'-NH)](X31)[Sar]HD[dR]IPVHLCG-NH2; thioether N-13)
50 to 200	CC(C)C[C@@H]1NC(=O)[C@H](CCCNC(=N)N)NC(=O)[C@H](C(C)C)NC(=O)[C@@H]2CCCN2C(=O)[C@H](C(C)C)NC(=O)[C@@H](CCCNC(=N)N)NC(=O)[C@H](CC(=O)O)NC(=O)[C@@H]2CCCN2C(=O)CN(C)C(=O)[C@H](Cc2ccc(-c3cccc(NC(=O)c4ccccc4OCC(=O)O)c3)cc2)NC(=O)[C@H](Cc2ccc(-c3ccccc3)cc2)NC(=O)[C@H](CN2CCOCC2)NC(=O)CSC[C@@H](C(=O)NCC(N)=O)NC1=O [Example 327] ({CH2CO}-[Ala(morpholin-4-yl)][Bip][X49](X50)[Sar]PD[dR]VPVRLCG-NH2; thioether N-13)
50 to 200	CC[C@H](C)[C@@H]1NC(=O)[C@@H](CCCNC(=N)N)NC(=O)[C@H](CC(=O)O)NC(=O)[C@H](Cc2cnc[nH]2)NC(=O)CN(C)C(=O)[C@H](Cc2ccc(-c3ccc(NC(=O)Cc4cccc(C(=O)O)c4)cc3)cc2)NC(=O)[C@H](Cc2ccc(-c3ccccc3)cc2)NC(=O)[C@H](CC2CCCCC2)NC(=O)CSC[C@@H](C(=O)NCC(N)=O)NC(=O)[C@H](CC(C)C)NC(=O)[C@H](Cc2cnc[nH]2)NC(=O)[C@H](C(C)C)NC(=O)[C@@H]2CCCN2C1=O [Example 328] ({CH2CO}-[Cha][Bip][X46][Sar]HD[dR]IPVHLCG-NH2; thioether N-13)
< 50	CC[C@H](C)[C@@H]1NC(=O)[C@@H](CCCNC(=N)N)NC(=O)[C@H](CC(=O)O)NC(=O)[C@H](Cc2cnc[nH]2)NC(=O)CN(C)C(=O)[C@H](Cc2ccc(-c3ccc(NC(=O)c4ccccc4OCC(=O)O)cc3)cc2)NC(=O)[C@H](Cc2ccc(-c3ccccc3)cc2)NC(=O)[C@H](CC2CCCCC2)NC(=O)CSC[C@@H](C(=O)NCC(N)=O)NC(=O)[C@H](CC(C)C)NC(=O)[C@H](Cc2cnc[nH]2)NC(=O)[C@H](C(C)C)NC(=O)[C@@H]2CCCN2C1=O [Example 329] ({CH2CO}-[Cha][Bip][Bip(4'-NH)](X50)[Sar]HD[dR]IPVHLCG-NH2; thioether N-13)
50 to 200	CC[C@H](C)[C@@H]1NC(=O)[C@@H](CCCNC(=N)N)NC(=O)[C@H](CC(=O)O)NC(=O)[C@H](Cc2cnc[nH]2)NC(=O)CN(C)C(=O)[C@H](Cc2ccc(-c3ccc(NC(=O)c4ccc(-c5ccccc5)cc4OCC(=O)O)cc3)cc2)NC(=O)[C@H](Cc2ccc(-c3ccccc3)cc2)NC(=O)[C@H](CC2CCCCC2)NC(=O)CSC[C@@H](C(=O)NCC(N)=O)NC(=O)[C@H](CC(C)C)NC(=O)[C@H](Cc2cnc[nH]2)NC(=O)[C@H](C(C)C)NC(=O)[C@@H]2CCCN2C1=O [Example 330] ({CH2CO}-[Cha][Bip][Bip(4'-NH)](X24)[Sar]HD[dR]IPVHLCG-NH2; thioether N-13)
< 50	CC[C@H](C)[C@@H]1NC(=O)[C@@H](CCCNC(=N)N)NC(=O)[C@H](CC(=O)O)NC(=O)[C@H](Cc2cnc[nH]2)NC(=O)CN(C)C(=O)[C@H](Cc2ccc(-c3ccc(C(=O)NC)cc3)cc2)NC(=O)[C@H](Cc2ccc(-c3ccc(C(=O)O)cc3)cc2)NC(=O)[C@H](CC2CCCCC2)NC(=O)CSC[C@@H](C(=O)NCC(N)=O)NC(=O)[C@H](CC(C)C)NC(=O)[C@H](Cc2cnc[nH]2)NC(=O)[C@H](C(C)C)NC(=O)[C@@H]2CCCN2C1=O [Example 331] ({CH2CO}-[Cha][Bip(4'-COOH)][Bip(4'-CONHMe)][Sar]HD[dR]IPVHLCG-NH2; thioether N-13)
200 to 2000	CC(C)C[C@@H]1NC(=O)[C@H](CCCNC(=N)N)NC(=O)[C@H](C(C)C)NC(=O)[C@@H]2CCCN2C(=O)[C@H](C(C)C)NC(=O)[C@@H](CCCNC(=N)N)NC(=O)[C@H](CC(=O)O)NC(=O)[C@@H]2CCCN2C(=O)CN(C)C(=O)[C@H](Cc2ccc(-c3cccc(OC(=O)c4csc(-c5ccncc5)n4)c3)cc2)NC(=O)[C@H](Cc2ccc(-c3ccccc3)cc2)NC(=O)[C@H](CN2CCOCC2)NC(=O)CSC[C@@H](C(=O)NCC(N)=O)NC1=O [Example 332] ({CH2CO}-[Ala(morpholin-4-yl)][Bip][X84][Sar]PD[dR]VPVRLCG-NH2; thioether N-13)

Compound	IC50 [nM]
CC[C@H](C)[C@@H]1NC(=O)[C@@H]2CCCN2C(=O)[C@H]([C@@H](C)CC)NC(=O)[C@@H](CCCNC(=N)N)NC(=O)[C@H](CC(=O)O)NC(=O)[C@H](Cc2ccccc2)NC(=O)CN(C)C(=O)[C@H](Cc2ccc(-c3ccc(NC(=O)c4nn(C)c5ccccc45)cc3)cc2)NC(=O)[C@H](Cc2ccc(-c3ccc(C(=O)O)cc3)cc2)NC(=O)[C@H](C(C)(C)C)NC(=O)CSC[C@@H](C(=O)NCC(N)=O)NC(=O)[C@H](CC(C)C)NC(=O)[C@H](Cc2cnc[nH]2)NC1=O [Example 334] ({CH2CO}-[Tle][Bip(4'-COOH)][X5][Sar]FD[dR]IPIHLCG-NH2; thioether N-13)	< 50
CC[C@H](C)[C@@H]1NC(=O)[C@@H]2CCCN2C(=O)[C@H]([C@@H](C)CC)NC(=O)[C@@H](CCCNC(=N)N)NC(=O)[C@H](CC(=O)O)NC(=O)[C@H](Cc2ccccn2)NC(=O)CN(C)C(=O)[C@H](Cc2ccc(-c3ccc(NC(=O)c4nn(C)c5ccccc45)cc3)cc2)NC(=O)[C@H](Cc2ccc(-c3ccccc3)cc2)NC(=O)[C@H](C(C)(C)C)NC(=O)CSC[C@@H](C(=O)NCC(N)=O)NC(=O)[C@H](CC(C)C)NC(=O)[C@H](Cc2cccc(C(N)=O)c2)NC1=O [Example 335] ({CH2CO}-[Tle][Bip][X5][Sar][2Pal]D[dR]IPI[Phe(3-CONH2)]LCG-NH2; thioether N-13)	50 to 200
CC[C@H](C)[C@@H]1NC(=O)[C@@H](CCCNC(=N)N)NC(=O)[C@H](CC(=O)O)NC(=O)[C@H](Cc2cnc[nH]2)NC(=O)CN(C)C(=O)[C@H](Cc2ccc(-c3ccc(NC(=O)c4nn(C)c5ccccc45)cc3)cc2)NC(=O)[C@H](Cc2ccc(-c3ccc(C(=O)O)cc3)cc2)NC(=O)[C@H](CC2CCCCC2)NC(=O)CSC[C@@H](C(=O)NCC(N)=O)NC(=O)[C@H](CC(C)C)NC(=O)[C@H](Cc2cnc[nH]2)NC(=O)[C@H](C(C)C)NC(=O)[C@@H]2Cc3ccccc3CN2C1=O [Example 336] ({CH2CO}-[Cha][Bip(4'-COOH)][X5][Sar]HD[dR]I[Tic]VHLCG-NH2; thioether N-13)	< 50
CC[C@H](C)[C@@H]1NC(=O)[C@@H]2CCN2C(=O)[C@H]([C@@H](C)CC)NC(=O)[C@@H](CCCNC(=N)N)NC(=O)[C@H](CC(=O)O)NC(=O)[C@H](Cc2ccc(O)cc2)NC(=O)CN(C)C(=O)[C@H](Cc2ccc(-c3ccc(NC(=O)c4nn(C)c5ccccc45)cc3)cc2)NC(=O)[C@H](Cc2ccc(-c3ccccc3)cc2)NC(=O)[C@H](C(C)(C)C)NC(=O)CSC[C@@H](C(=O)NCC(N)=O)NC(=O)[C@H](CC(C)C)NC(=O)[C@H](Cc2ccc(O)cc2)NC1=O [Example 337] ({CH2CO}-[Tle][Bip][X5][Sar]YD[dR]I[Aze]IYLCG-NH2; thioether N-13)	50 to 200
CC(C)C[C@@H]1NC(=O)[C@H](CCCNC(=N)N)NC(=O)[C@H](C(C)C)NC(=O)[C@@H]2CCCN2C(=O)[C@H](C(C)C)NC(=O)[C@@H](CCCNC(=N)N)NC(=O)[C@H](CC(=O)O)NC(=O)[C@@H]2CCCN2C(=O)CN(C)C(=O)[C@H](Cc2ccc(-c3ccc(NC(=O)c4nn(C)c5ccccc45)cc3)cc2)NC(=O)[C@H](Cc2ccc(-c3ccccc3)cc2)NC(=O)[C@H](CN2CCOCC2)NC(=O)CSC[C@@H](C(=O)NCC(N)=O)NC1=O [Example 338] ({CH2CO}-[Ala(morpholin-4-yl)][Bip][X5][Sar]PD[dR]VPVRLCG-NH2; thioether N-13)	< 50
CC(C)C[C@@H]1NC(=O)[C@H](Cc2ccccn2)NC(=O)[C@H](C(C)C)NC(=O)[C@@H]2CCCN2C(=O)[C@H](C(C)C)NC(=O)[C@@H](CCCNC(=N)N)NC(=O)[C@H](CC(=O)O)NC(=O)[C@H](Cc2ccc(O)cc2)NC(=O)CN(C)C(=O)[C@H](Cc2ccc(-c3ccc(NC(=O)c4nn(C)c5ccccc45)cc3)cc2)NC(=O)[C@H](Cc2ccc(-c3ccc(C(=O)O)cc3)cc2)NC(=O)[C@H](CC2CCCCC2)NC(=O)CSC[C@@H](C(=O)NCC(N)=O)NC1=O [Example 339] ({CH2CO}-[Cha][Bip(4'-COOH)][X5][Sar]YD[dR]VPV[2Pal]LCG-NH2; thioether N-13)	< 50
